Assay results taken from publication doi:10.1101/2021.04.08.439011v1 (biorxiv, 2021).

How the values were obtained:
PRKD1 = PRKD1 (Homo sapiens, UniProt Q15139); conditions: 0.1 µM; binder
AURKA = AURKA (Homo sapiens, UniProt O14965); conditions: 0.1 µM; binder
PIK3CA(Q546K) = PIK3CA(Q546K) (Homo sapiens, UniProt P42336, Q546K); conditions: 0.1 µM; binder
PIK3CA(C420R) = PIK3CA(C420R) (Homo sapiens, UniProt P42336, C420R); conditions: 0.1 µM; binder
CDKL3 = CDKL3 (Homo sapiens, UniProt Q8IVW4); conditions: 0.1 µM; binder
PFTAIRE2 = PFTAIRE2 (Homo sapiens, UniProt Q96Q40); conditions: 0.1 µM; binder
ACVR1 = ACVR1 (Homo sapiens, UniProt Q04771); conditions: 0.1 µM; binder
WNK1 = WNK1 (Homo sapiens, UniProt Q9H4A3); conditions: 0.1 µM; binder
MARK3 = MARK3 (Homo sapiens, UniProt P27448); conditions: 0.1 µM; binder
CDK2 = CDK2 (Homo sapiens, UniProt P24941); conditions: 0.1 µM; binder
TAOK1 = TAOK1 (Homo sapiens, UniProt Q7L7X3); conditions: 0.1 µM; binder
ERK2 = ERK2 (Homo sapiens, UniProt P28482); conditions: 0.1 µM; binder
EPHB2 = EPHB2 (Homo sapiens, UniProt P29323); conditions: 0.1 µM; binder
FLT3(D835Y) = FLT3(D835Y) (Homo sapiens, UniProt P36888, D835Y); conditions: 0.1 µM; binder
GRK7 = GRK7 (Homo sapiens, UniProt Q8WTQ7); conditions: 0.1 µM; binder
MEK2 = MEK2 (Homo sapiens, UniProt P36507); conditions: 0.1 µM; binder
NEK2 = NEK2 (Homo sapiens, UniProt P51955); conditions: 0.1 µM; binder
MARK1 = MARK1 (Homo sapiens, UniProt Q9P0L2); conditions: 0.1 µM; binder
AMPK-alpha2 = AMPK-alpha2 (Homo sapiens, UniProt P54646); conditions: 0.1 µM; binder
PIM1 = PIM1 (Homo sapiens, UniProt P11309); conditions: 0.1 µM; binder
PFCDPK1 (P. falciparum) = PFCDPK1 (P. falciparum) (Plasmodium falciparum, UniProt P62344); conditions: 1 µM; binder
[1] = target: RSK2(Kin.Dom.2-C-terminal) (Homo sapiens, UniProt P51812); conditions: 0.1 µM; binder
[2] = target: TYK2(JH1domain-catalytic) (Homo sapiens, UniProt P29597); conditions: 0.1 µM; binder
PKNB (M. tuberculosis) = PKNB (M. tuberculosis) (Mycobacterium tuberculosis, UniProt P9WI81); conditions: 0.1 µM; binder
LTK = LTK (Homo sapiens, UniProt P29376); experiment: biochemical; conditions: read-out: Percent Control
STK33 = STK33 (Homo sapiens, UniProt Q9BYT3); experiment: biochemical; conditions: read-out: Percent Control
DYRK1B = DYRK1B (Homo sapiens, UniProt Q9Y463); experiment: biochemical; conditions: read-out: Percent Control
[3] = target: TYK2(JH2domain-pseudokinase) (Homo sapiens, UniProt P29597); conditions: 0.1 µM; binder
[4] = target: JAK1(JH2domain-pseudokinase) (Homo sapiens, UniProt P23458); conditions: 0.1 µM; binder
[5] = target: RPS6KA4(Kin.Dom.1-N-terminal) (Homo sapiens, UniProt O75676); conditions: 0.1 µM; binder

Sequence of DYRK1B (Q9Y463 whole entry): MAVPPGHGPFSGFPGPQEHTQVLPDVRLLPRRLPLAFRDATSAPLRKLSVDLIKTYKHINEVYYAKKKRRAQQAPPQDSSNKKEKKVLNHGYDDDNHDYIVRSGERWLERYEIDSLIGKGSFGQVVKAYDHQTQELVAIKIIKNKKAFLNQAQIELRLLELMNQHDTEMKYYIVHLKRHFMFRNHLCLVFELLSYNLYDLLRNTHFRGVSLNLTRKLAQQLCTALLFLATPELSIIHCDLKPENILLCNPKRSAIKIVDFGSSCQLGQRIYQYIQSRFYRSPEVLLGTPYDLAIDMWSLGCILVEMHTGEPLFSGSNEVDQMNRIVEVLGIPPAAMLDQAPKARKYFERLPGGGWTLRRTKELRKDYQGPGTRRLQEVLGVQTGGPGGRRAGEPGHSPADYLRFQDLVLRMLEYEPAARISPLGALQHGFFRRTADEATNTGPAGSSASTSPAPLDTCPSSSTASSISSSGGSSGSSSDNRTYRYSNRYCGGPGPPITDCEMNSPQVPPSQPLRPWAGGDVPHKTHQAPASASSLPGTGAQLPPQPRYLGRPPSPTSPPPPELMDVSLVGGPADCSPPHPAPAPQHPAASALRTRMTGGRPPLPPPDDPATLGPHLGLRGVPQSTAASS
Sequence of WNK1 (Q9H4A3 whole entry): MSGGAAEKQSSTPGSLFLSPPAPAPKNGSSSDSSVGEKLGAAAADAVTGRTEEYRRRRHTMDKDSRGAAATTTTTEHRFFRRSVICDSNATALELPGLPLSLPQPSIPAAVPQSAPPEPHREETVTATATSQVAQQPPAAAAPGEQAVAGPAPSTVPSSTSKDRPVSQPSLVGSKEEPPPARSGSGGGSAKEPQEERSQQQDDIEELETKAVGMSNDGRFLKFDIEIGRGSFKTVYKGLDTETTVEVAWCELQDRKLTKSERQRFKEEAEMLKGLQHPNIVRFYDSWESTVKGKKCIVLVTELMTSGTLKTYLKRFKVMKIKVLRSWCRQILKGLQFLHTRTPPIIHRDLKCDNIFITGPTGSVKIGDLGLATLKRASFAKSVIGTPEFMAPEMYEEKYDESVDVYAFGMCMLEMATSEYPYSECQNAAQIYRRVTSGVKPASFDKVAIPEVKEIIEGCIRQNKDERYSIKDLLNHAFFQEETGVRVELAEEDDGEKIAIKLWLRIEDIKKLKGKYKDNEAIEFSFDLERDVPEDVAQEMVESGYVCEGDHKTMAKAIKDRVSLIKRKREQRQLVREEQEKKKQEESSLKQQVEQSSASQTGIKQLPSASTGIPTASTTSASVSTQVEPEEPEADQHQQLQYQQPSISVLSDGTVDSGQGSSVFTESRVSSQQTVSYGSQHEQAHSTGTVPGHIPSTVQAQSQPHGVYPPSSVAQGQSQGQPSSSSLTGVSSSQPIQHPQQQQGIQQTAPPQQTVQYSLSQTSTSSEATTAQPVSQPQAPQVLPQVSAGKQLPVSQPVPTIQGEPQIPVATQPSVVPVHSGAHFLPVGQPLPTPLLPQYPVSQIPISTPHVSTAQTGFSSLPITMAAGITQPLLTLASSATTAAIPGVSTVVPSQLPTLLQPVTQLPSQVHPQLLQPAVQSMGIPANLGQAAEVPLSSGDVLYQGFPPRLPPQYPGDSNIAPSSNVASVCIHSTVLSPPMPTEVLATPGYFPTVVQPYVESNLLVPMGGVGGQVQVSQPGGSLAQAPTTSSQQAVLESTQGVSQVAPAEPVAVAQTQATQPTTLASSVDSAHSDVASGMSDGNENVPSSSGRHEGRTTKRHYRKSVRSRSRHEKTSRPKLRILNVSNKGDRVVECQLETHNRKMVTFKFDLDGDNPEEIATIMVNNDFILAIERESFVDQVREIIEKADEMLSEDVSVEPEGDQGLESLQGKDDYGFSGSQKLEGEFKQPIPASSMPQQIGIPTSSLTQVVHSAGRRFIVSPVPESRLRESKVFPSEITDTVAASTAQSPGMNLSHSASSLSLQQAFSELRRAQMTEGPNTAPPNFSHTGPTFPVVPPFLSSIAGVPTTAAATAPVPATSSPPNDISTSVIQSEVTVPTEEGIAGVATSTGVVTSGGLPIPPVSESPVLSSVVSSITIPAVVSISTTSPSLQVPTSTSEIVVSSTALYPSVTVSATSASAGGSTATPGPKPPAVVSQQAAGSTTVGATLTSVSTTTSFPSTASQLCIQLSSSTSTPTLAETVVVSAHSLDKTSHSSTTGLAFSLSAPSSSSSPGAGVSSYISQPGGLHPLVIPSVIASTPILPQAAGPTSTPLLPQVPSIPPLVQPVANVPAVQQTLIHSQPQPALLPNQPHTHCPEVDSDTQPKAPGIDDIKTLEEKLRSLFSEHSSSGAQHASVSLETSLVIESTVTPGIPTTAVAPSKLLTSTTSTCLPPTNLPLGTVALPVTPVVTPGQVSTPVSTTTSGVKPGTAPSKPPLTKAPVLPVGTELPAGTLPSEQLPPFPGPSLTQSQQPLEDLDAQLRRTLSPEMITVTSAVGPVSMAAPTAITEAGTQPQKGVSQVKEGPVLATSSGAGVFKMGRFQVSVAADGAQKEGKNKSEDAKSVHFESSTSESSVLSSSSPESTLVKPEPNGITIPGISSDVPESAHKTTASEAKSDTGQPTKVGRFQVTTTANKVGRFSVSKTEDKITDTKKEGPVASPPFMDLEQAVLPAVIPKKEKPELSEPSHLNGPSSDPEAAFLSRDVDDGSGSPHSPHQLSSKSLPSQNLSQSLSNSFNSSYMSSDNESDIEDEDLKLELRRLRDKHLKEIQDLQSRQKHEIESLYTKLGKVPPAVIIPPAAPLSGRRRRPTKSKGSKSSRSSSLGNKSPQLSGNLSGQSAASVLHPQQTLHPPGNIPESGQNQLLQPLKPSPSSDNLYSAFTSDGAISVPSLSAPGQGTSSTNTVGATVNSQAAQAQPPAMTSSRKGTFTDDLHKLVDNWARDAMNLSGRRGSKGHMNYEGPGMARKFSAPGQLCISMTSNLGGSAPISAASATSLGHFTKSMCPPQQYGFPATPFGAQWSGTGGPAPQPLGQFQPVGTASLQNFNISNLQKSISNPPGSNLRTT
Sequence of EPHB2 (P29323 whole entry): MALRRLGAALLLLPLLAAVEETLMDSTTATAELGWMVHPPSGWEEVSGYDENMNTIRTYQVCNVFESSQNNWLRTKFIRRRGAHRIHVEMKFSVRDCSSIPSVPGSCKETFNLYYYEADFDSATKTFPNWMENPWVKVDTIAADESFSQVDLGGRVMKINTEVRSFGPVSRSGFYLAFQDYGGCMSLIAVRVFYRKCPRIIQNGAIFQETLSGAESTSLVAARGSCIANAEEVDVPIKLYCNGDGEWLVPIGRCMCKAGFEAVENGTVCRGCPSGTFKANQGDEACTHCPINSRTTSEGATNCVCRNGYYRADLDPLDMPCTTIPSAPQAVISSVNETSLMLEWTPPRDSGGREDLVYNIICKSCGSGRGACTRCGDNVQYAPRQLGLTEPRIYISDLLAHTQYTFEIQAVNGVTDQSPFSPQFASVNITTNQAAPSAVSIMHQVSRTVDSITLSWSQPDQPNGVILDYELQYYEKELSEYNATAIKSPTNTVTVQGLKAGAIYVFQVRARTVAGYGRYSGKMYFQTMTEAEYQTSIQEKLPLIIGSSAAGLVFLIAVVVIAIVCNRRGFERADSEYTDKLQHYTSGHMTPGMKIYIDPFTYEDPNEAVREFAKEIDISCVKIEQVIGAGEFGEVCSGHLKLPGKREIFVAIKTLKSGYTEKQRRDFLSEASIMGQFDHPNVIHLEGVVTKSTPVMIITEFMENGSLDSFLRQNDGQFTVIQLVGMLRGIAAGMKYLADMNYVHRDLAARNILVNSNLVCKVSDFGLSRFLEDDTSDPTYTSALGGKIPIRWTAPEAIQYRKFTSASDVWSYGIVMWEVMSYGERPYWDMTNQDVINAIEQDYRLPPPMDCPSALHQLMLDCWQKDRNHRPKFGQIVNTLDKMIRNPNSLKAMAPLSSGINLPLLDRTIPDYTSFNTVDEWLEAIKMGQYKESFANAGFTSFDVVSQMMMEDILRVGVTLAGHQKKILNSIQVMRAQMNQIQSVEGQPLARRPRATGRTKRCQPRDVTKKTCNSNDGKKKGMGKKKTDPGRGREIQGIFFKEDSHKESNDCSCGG
Sequence of NEK2 (P51955 whole entry): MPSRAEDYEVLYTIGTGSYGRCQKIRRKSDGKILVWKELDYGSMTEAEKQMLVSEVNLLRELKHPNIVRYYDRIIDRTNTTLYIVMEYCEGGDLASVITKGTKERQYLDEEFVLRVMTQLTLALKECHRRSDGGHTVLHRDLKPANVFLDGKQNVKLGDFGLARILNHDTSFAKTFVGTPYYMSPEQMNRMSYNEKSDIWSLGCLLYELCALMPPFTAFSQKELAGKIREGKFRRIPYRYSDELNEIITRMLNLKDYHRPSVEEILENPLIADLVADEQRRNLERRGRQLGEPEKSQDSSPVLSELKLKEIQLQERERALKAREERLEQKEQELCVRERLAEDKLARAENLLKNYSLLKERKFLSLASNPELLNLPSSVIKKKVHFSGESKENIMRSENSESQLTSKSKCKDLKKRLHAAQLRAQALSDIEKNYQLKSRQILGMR
Sequence of CDKL3 (Q8IVW4 whole entry): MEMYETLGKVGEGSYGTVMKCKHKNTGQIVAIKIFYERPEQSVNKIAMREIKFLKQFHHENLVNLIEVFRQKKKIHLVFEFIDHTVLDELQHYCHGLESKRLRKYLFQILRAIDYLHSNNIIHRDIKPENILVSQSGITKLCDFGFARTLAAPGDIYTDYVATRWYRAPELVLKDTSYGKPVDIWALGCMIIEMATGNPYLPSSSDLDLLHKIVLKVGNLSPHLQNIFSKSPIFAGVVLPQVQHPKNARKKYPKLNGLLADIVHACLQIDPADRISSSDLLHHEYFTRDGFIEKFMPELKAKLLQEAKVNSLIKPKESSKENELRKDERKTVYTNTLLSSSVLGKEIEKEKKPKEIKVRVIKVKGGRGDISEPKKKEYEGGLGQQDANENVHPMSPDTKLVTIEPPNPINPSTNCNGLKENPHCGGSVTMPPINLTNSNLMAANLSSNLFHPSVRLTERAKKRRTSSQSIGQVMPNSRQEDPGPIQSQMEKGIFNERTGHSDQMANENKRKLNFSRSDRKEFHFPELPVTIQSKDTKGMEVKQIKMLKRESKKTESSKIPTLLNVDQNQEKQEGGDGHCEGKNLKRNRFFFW

Q: With `CNc1ncc2cc(-c3ccc(-c4cccc(C)n4)cc3Cl)c(=O)n(C[C@H]3OC[C@H](N)CO3)c2n1` [compound 6, G-5555] as the molecule, how does the “Percent Control” value (PRKD1) read?
A: 68%

Q: And the “Percent Control” value (AURKA)?
A: 98%

Q: What about the “Percent Control” value (PIK3CA(Q546K)) of the same molecule?
A: 85%

Q: What about the “Percent Control” value (PIK3CA(C420R)) of the same molecule?
A: 80%

Q: And the “Percent Control” value (CDKL3)?
A: 89%

Q: And the “Percent Control” value (PFTAIRE2)?
A: 100%

Q: What about the “Percent Control” value (ACVR1) of the same molecule?
A: 97%

Q: What about the “Percent Control” value (WNK1) of the same molecule?
A: 100%

Q: What about the “Percent Control” value (MARK3) of the same molecule?
A: 45%

Q: And the “Percent Control” value (CDK2)?
A: 96%

Q: What about the “Percent Control” value (TAOK1) of the same molecule?
A: 100%

Q: And the “Percent Control” value (ERK2)?
A: 100%

Q: And the “Percent Control” value (EPHB2)?
A: 100%

Q: And the “Percent Control” value (FLT3(D835Y))?
A: 94%

Q: What about the “Percent Control” value (GRK7) of the same molecule?
A: 89%

Q: What about the “Percent Control” value (MEK2) of the same molecule?
A: 33%

Q: And the “Percent Control” value (NEK2)?
A: 100%

Q: And the “Percent Control” value (MARK1)?
A: 100%

Q: And the “Percent Control” value (AMPK-alpha2)?
A: 93%

Q: And the “Percent Control” value (PIM1)?
A: 100%

Q: What about the “Percent Control” value (PFCDPK1 (P. falciparum)) of the same molecule?
A: 0.4%

Q: And the “Percent Control” value [1]?
A: 83%

Q: And the “Percent Control” value [2]?
A: 94%

Q: And the “Percent Control” value (PKNB (M. tuberculosis))?
A: 100%

Q: And the remaining activity at 1 µM (LTK)?
A: 4.1%

Q: What about the remaining activity at 1 µM (STK33) of the same molecule?
A: 75%

Q: What about the remaining activity at 1 µM (DYRK1B) of the same molecule?
A: 49%

Q: What about the “Percent Control” value [3] of the same molecule?
A: 84%

Q: What about the “Percent Control” value [4] of the same molecule?
A: 92%

Q: What about the “Percent Control” value [5] of the same molecule?
A: 100%
